Laboratory results published in patent US20150309031A2, “COMPOSITIONS AND METHODS FOR PROGNOSIS AND TREATMENT OF CANCER” (NOVAZOI THERANOSTICS, priority 2013, published 2015).
pKi: −log10 of the molar value.

Tests used:
231 cells = assay: Mitotic arrest (MA) by flow cytometry, 231 cells; format: cell-based; conditions: 10 μM
Protocol: FIGS. 2A-2C depict mitotic arrest (MA) phenotypes observed upon treatment with putative centrosome declustering drugs. […] Declustering drugs included Nos, BN, RBN, PJ, and GF, all at 10 and 25 μM except GF, which was used at 25 and 50 μM, and cell lines included 231, PC3, and HeLa. […] In general, MA increased from 0 h to a peak near 24 h, followed by a decline in MA that coincided with increases in subG1 fractions. Results are representative of three independent experiments. […] Drugs are ranked in order of increasing peak subG1 from bottom to top along the y axis. […] Increased levels of both cyclins compared with controls (0 h) were detected across cell lines with variable expression patterns depending on the drug and cell line. To evaluate apoptosis, cleaved caspase-3 (C. Caspase-3) was immunoblotted and eventual increases over controls were universally detected, typically by 24 h.
To evaluate the impact of putative declustering drugs on cell cycle progression and hypodiploidy (<2N DNA content, which may indicate apoptotic cells), MDA-MB-231 (231), PC3, and HeLa cells were treated with different concentrations of declustering drugs, stained with propidium iodide, labeled with anti-MPM2 antibody, and then assessed by flow cytometry at multiple time points over 48 h. […]

[1] = system: human dermal fibroblasts (HDFs); assay: Centrosome amplification (CA) by microscopy, HDFs; format: cell-based; conditions: any concentration or time point assessed
Protocol: (§1) Consequently, CA was assessed in cultures treated with different concentrations of declustering drugs for 6, 12, 18, or 24 h and untreated controls via microscopy. Centrosomes were identified by γ-tubulin and centrin-2 colocalization at discrete foci. […] The peak percent CA detected over 24 h is shown in FIG. 6 (only statistically significant (P<0.05) increases over control values are represented in the Figures). Representative confocal micrographs of CA in interphase and mitotic cells, both control and drug treated, are depicted in FIG. 7. No significant correlations between the degree of CA (FIG. 5A) and the expression levels of PLK4, Cyclin E, and Aurora A were found (FIG. 4).
(§2) To determine whether the CA-inducing activity of declustering drugs is restricted to cancer cells, two non-malignant cell lines, mammary fibrocystic (MCF10A) cells and adult human dermal fibroblasts were treated with these drugs. Neither one of RBN, GF or PJ induced CA or cell death (Table 8) in these cell lines. […] In comparison, 10 and 25 μM RBN increased peak CA over controls in interphase cells (p<0.001 and p=0.001, respectively), with the lower concentration dramatically augmenting peak CA to 56% of cells versus 15% for the higher dose (FIG. 9B). Only 10 but not 25 μM RBN increased the extent of CA in mitotic cells, and this upregulation was only slight (10%, p=0.041).

[2] = system: mammary fibrocystic (MCF10A) cells; assay: subG1 (hypodiploid) fraction by flow cytometry, MCF10A cells; format: cell-based; conditions: for Peak subG1 percent over 48 h: MCF10A
[3] = system: adult human dermal fibroblasts (HDF); assay: subG1 (hypodiploid) fraction by flow cytometry, HDFs; format: cell-based
PC3 cells = assay: subG1 (hypodiploid) fraction by flow cytometry, PC3 cells; format: cell-based
Protocol: (§3) Trypsinized cells were resuspended in PBS at 10^6 cells/ml. Cells were then fixed by addition of ice-cold 70% ethanol. Ethanol-fixed cells were kept overnight at 4° C. before staining. Cells were pelleted and washed twice with PBS. Cell pellets were incubated for an hour at room temperature with mouse anti-MPM-2 antibody (Millipore, Mass., USA), followed by 1 h incubation with Alexa-488 anti-mouse secondary antibody (Life Technologies, NY, USA). Finally cells were washed, pelleted and resuspended in propidium iodide-containing isotonic buffer (0.1 mg/mL) and 0.5% Triton X-100. Cell cycle distribution was determined by flow cytometry using an LSR Fortessa Flow cytometer (BD Biosciences, CA, USA) and analyzed using Flowjo software (Tree Star, OR, USA). […] The duration, highest degree, and rapidity of onset of MA varied between drugs, drug concentrations, and cell lines (FIGS. 2A, 2B). In general, the maximum MA achieved was less pronounced in Nos- and PJ-treated cells (FIGS. 2A, 2B). Drug-induced onset of MA was corroborated by substantial increases in cyclin B1 levels in all cell lines (FIG. 2C). […] Instances where the subG1 fraction was elevated without cleaved caspase-3 may either represent caspase-independent cell death or the presence of hypodiploid cells whose fate is unclear.

MCF10A cells = assay: Centrosome amplification (CA) by microscopy, MCF10A cells; format: cell-based; conditions: interphase and mitotic cells, over 24 h
Protocol: as §1, §2

MDA-MB-231 (231) cells = assay: subG1 (hypodiploid) fraction by flow cytometry, 231 cells; format: cell-based
Protocol: as §3

HeLa cells = assay: subG1 (hypodiploid) fraction by flow cytometry, HeLa cells; format: cell-based
Protocol: as §3

[4] = system: BT-549 breast cancer cells; conditions: BT-549 cells with amplified centrosomes; cited from earlier work
[5] = biological target: T1, KIFC1/microtubule (MT) binary complex (Homo sapiens, UniProt Q9BW19); conditions: read-out: Ki (ATP-competitive, MT-noncompetitive inhibition of MT-stimulated KIFC1 enzymatic activity); cited from earlier work
T1 sequence (Q9BW19 1-673): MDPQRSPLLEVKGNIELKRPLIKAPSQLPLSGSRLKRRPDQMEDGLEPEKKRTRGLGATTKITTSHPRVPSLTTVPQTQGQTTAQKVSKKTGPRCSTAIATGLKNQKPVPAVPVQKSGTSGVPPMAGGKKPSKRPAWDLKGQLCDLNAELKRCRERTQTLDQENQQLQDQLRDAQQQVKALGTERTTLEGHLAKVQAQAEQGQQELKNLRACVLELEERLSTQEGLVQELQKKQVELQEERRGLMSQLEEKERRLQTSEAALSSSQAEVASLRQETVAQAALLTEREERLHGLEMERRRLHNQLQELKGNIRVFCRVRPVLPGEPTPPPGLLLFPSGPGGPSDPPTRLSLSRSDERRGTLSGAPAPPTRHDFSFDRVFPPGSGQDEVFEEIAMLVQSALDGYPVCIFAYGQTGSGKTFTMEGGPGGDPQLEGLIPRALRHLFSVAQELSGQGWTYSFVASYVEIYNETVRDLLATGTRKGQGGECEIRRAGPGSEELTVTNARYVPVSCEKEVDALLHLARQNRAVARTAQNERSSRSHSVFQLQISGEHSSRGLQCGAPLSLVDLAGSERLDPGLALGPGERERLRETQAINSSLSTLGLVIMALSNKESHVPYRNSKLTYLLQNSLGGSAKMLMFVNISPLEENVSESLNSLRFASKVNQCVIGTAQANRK

With `COc1ccc2c(c1OC)C(=O)O[C@@H]2[C@H]1c2c(c(Br)c3c(c2OC)OCO3)CCN1C` [BN, 9-bromonoscapine] as the compound, how does the “mitotic arrest (in words)” value (231 cells) read?
Its value is “did not cause any MA”.

What about the “change of CA over controls (in words)” value [1] of the same compound?
Its value is “did not significantly increase the extent of CA over controls”.

And the “change of peak subG1 percent compared to controls (in words)” value ([2]; MCF10A cells)?
Its value is “did not cause a significant increase in peak subG1 percent compared to controls”.

What about the “Peak subG1 percent over 48 h” value ([2]; 10 μM) of the same compound?
Its value is 3.5%.

What about the “Peak subG1 percent over 48 h” value ([2]; 25 μM) of the same compound?
Its value is 3.0%.

What about the “Peak subG1 percent over 48 h” value ([3]; 10 μM) of the same compound?
Its value is 16.5%.

What about the “Peak subG1 percent over 48 h” value ([3]; 25 μM) of the same compound?
The value was 20.4%.

And the “Peak subG1 percent over 48 h” value (PC3 cells; 10 μM)?
The value was 46.0%.

What about the “Peak subG1 percent over 48 h” value (PC3 cells; 25 μM) of the same compound?
Its value is 42.8%.

What about the “maximum subG1 fraction relative to control” value (PC3 cells; 25 μM) of the same compound?
The value was 9.2 × control.

And the “change of CA over control levels (in words)” value (MCF10A cells)?
The value was “neither concentrations of Nos or BN significantly increased CA over control levels”.

And the “Peak subG1 percent over 48 h” value (MDA-MB-231 (231) cells; 10 μM)?
Its value is 32.5%.

And the “Peak subG1 percent over 48 h” value (MDA-MB-231 (231) cells; 25 μM)?
Its value is 65.2%.

And the “maximum subG1 fraction relative to control” value (MDA-MB-231 (231) cells; 25 μM)?
The value was 9.3 × control.

What about the “Peak subG1 percent over 48 h” value (HeLa cells; 10 μM) of the same compound?
Its value is 42.0%.

What about the “Peak subG1 percent over 48 h” value (HeLa cells; 25 μM) of the same compound?
The value was 54.9%.

And the “maximum subG1 fraction relative to control” value (HeLa cells; 25 μM)?
The value was 4.4 × control.

Which centrosome declustering [4] does the source give for `CCCc1cc(C(=O)N[C@H](Cc2ccc(-c3cccc(OC(F)(F)F)c3)nc2)C(=O)N[C@@H]2CCNC2)sc1C` [AZ82] here?
The centrosome declustering was “causes centrosome declustering”.

What about the pKi [5] of the same compound?
Its pKi is 7.37.
